Laboratory results: ChEMBL document CHEMBL5727613, “Benzimidazolone and benzothiazolone compounds and their use as AMPA receptor modulators” (2020)

Experiment: Calcium Flux Assay: This assay was used to test compounds for their ability to inhibit TARP γ8 dependent AMPA receptor activity. The AMPA receptor is a non-selective cation channel activated by glutamate. lonotropic glutamate receptors normally desensitize too rapidly to allow detectable calcium influx in a FLIPR assay (Strange et al. (2006). “Functional characterisation of homomeric ionotropic glutamate receptors GluR1-GluR6 in a fluorescence-based high throughput screening assay.” Comb Chem High Throughput Screen 9(2): 147-158). But, this desensitization is incomplete, and a substantial steady-state current remains in the sustained presence of glutamate (Cho et al. (2007). “Two families of TARP isoforms that have distinct effects on the kinetic properties of AMPA receptors and synaptic currents.” Neuron 55(6): 890-904).An in vitro assay was used to determine the potency of test compounds as inhibitors of the glutamate response of the channel formed by GluA1o-g8. To ensure a 1:1 stoichiometry of GluA1o and g8 subunits in the expressed channel, a fusion of the cDNAs for GRIA1o and CACNG8 was used. Channels expressed with this construct appear to have similar properties to channels formed by co-expression of GRIA1o with an excess of CACNG8 (Shi et al. 2009). A clonal cell line in HEK293 cells stably expressing this construct, with a geneticin selection marker, was generated for use in this assay. Cell expressing the GRIAlo-CACNG8 fusion construct were grown in a monolayer in 96- or 384-well microtiter plates. They were washed with assay buffer (135 mM NaCl, 4 mM KCl, 3 mM CaCl2), 1 mM MgCl2, 5 mM glucose, 10 mM HEPES, pH 7.4, 300 mOs) using a Biotek EL405 plate washer. The cells were then loaded with a calcium-sensitive dye (Calcium-5 or Calcium-6, Molecular Devices) and the test compounds at a range of concentrations. Calcium flux following the addition of 15 μM glutamate was monitored using a Molecular Devices FLIPR Tetra.The fluorescence in each well was normalized to the fluorescence of negative and positive control wells. […]
Compound `O=c1[nH]c2ccc(-c3c(Cl)cccc3C3CC3)cc2[nH]1` has an IC50 of 6.31 nM.
In the case of `Cc1cccc(C)c1-c1ccc2[nH]c(=O)[nH]c2c1`, the IC50 is reported as 158 nM.
With `O=c1[nH]c2ccc(-c3c(Cl)cccc3OC(F)(F)F)cc2s1` the IC50 was 2.51 nM.
